Results: patent publication US7288671B2, “Interleukin-1 and tumor necrosis factor-α modulators, synthesis of said modulators and their enantiomers and methods of using said modulators” (Nereus Pharmaceuticals, Inc., priority 1999, dated 2007)
Like-named read-outs stand apart in the source and are kept apart here.

What was measured:
[1] = tested on: rat; conditions: cited from earlier work
[2] = tested on: silicosis; conditions: mice; cited from earlier work
[3] = tested on: TNF-α production; conditions: approximately 0.1 to approximately 1.0 microgram/ml for 48 hours; cited from earlier work
[4] = tested on: IL-6 synthesis; experiment: SAC-induced IL-6 synthesis, RAW 264.7 macrophage cells; type: cell-based, Murine
Method: Murine macrophage cells RAW 264.7 (1×10^6/ml) were pretreated for 30-60 minutes with varying doses of the synthetic compound of Formula (I), the synthetic compound of formula (I) and a panel of analogs (diluted in 0.5% DMSO) prior to stimulation with various agents such as lipopolysaccharide (LPS) or a gram positive agent like heat-killed Staph aureus (SAC). Supernatants collected over a 72-hour period will be assayed for the levels of TNF-α, IL-1, IL-6, IL-10, IL-12 and other cytokines either by elisa or bioassay. Additional studies to evaluate the effects of the synthetic compound of Formulae (I), (II), (IIA) and (IIB) on cytokine signaling pathways such as, for example, Caspase-activity (Nr-1, Nr.3), transcription factors such as NF-kB, MAP-kinase activity (p38, ERK and JNK) will also be performed.

[5] = tested on: IFN-γ (interferon-gamma); conditions: same conditions; cited from earlier work
[6] = tested on: IL-1 production; conditions: approximately 0.1 to approximately 1.0 microgram/ml for 48 hours; cited from earlier work
[7] = tested on: mice; conditions: cited from earlier work
[8] = tested on: IL-6; conditions: same conditions; cited from earlier work
[9] = tested on: cirrhosis; conditions: mice; cited from earlier work
[10] = tested on: iNOS (inducible nitric oxide synthase); conditions: cited from earlier work
[11] = tested on: COX-2 (cyclooxygenase-2); conditions: cited from earlier work

For `C=C[C@@]1(C)CC=C2[C@@H](CC[C@@H]3[C@](C)(C(=O)O)CCC[C@@]23C)C1` [Formula (I), acanthoic acid], the “minimum lethal dose (MLD)” value ([1]; rat, in vivo) is given as 1000 mg/kg, the toxicity ([1]; rats) is given as “minimal toxicity” and the “fibrotic granulomas (histologic analysis)” value [2] is given as “substantial reduction of fibrotic granulomas”. The “inhibition of the TNF-α production” value [3] was “approximately 90%”, the “inhibition of IL-6 synthesis” value [4] was “neither analog TTL1 nor TTL3 significantly inhibited IL-6 synthesis” and the “production of IFN-γ” value [5] was “not affected”. The “inhibition of the IL-1 production” value [6] was “approximately 90%”, the toxicity [7] was “minimal toxicity” and the toxicity ([7]; listed as 1) was “very little toxicity”. For the same compound, the LD ([7]; orally) was > 300 mg/100 g of body weight, the “production of IL-6” value [8] was “not affected” and the “cirrotic liver cells (histologic analysis)” value [9] was “remarkable recovery of the cirrotic liver cells”.
In the case of `CC1(C)CC[C@]2(C(=O)O)CC[C@]3(C)[C@H](C(=O)C=C4[C@@]5(C)C=C(C#N)C(=O)C(C)(C)[C@@H]5CC[C@]43C)[C@@H]2C1` [Compound 54, 2-cyano-3,12-dioxoolean-1,9-dien-28-oic acid], the “fold more active than any other known triterpenoid in suppressing iNOS” value [10] is listed as 500 fold and the “fold more active than any other known triterpenoid in suppressing COX-2” value [11] is listed as 500 fold.
